Assay results taken from patent publication US11666048B2, “Treatment for plants in conjunction with harvesting” (CORBET SCIENTIFIC, LLC, priority 2017, dated 2023).
Several values for one entry are separate records, joined by “and”; a condition that tells them apart may be missing. Equal values may be shown once. Entries after “also recorded” stand apart in the source; their conditions may differ.

Assays:
[1] = tested on: harvested grapefruit; assay: Water retention and disease protection in harvested grapefruit, pre-harvest spray (Example 3); type: in vivo
Description: Grapefruit trees were separated into three groups. Fruit in Groups 2 and 3 were treated prior to harvesting. Group 3 was treated with an aqueous treatment formulation comprising 95.70 wt % water, 2.00 wt % ACUSOL® 823, 0.10 wt % PVA (100,000 MW), 0.10 wt % ZnSO4 monohydrate, 0.10 wt % Antifoam® 8810, and 2.00 wt % TEA. […] Group 1 was untreated and served as a control. Groups 2 and 3 fruit were spray treated on Day −14 in the grove. Fruit was not de-greened. Fruit was weighed on Day 0, prior to packaging. Size 27-36 fruit were packed in honeycomb cartons, whereas size 40 fruit was packed in regular 4/5 cartons. Packed fruit was inspected on Day 68.

[2] = tested on: Diplodia; assay: Post-harvest disease protection in fruit: Diplodia (Example 5); type: in vivo, grapefruit; details: after 40 days in storage
Description: (§1) Grapefruit trees were separated into three groups. […] Spray treatment formulations were applied using a commercial air-blast sprayer (250 gallons/acre). Size 40 fruit were harvested in quadruplicate, washed, and waxed on Day 0. The washed and waxed fruit as then stored at ambient conditions (approximately 70-75° F.) for 40 days. Size 40 fruit harvested on Day 1 were left unwashed and unwaxed prior to storage (unwashed and unwaxed samples). After 40 days in storage, no significant differences were observed between treated and untreated fruit in terms of the percentage of healthy fruit and the percentage of total decay in the two groups.

[3] = tested on: Anthracnose; assay: Post-harvest disease protection in fruit: Anthracnose (Example 5); type: in vivo, grapefruit; details: after 40 days in storage
Description: as §1

[4] = tested on: harvested grapefruit; assay: Post-harvest disease protection in fruit: healthy fruit, total decay, stem-end rind breakdown (Example 5); type: in vivo; details: after 40 days in storage
Description: as §1

[5] = tested on: harvested grapefruit; assay: Post-harvest water-loss protection in fruit (Example 5); type: in vivo; details: ambient storage
Description: Grapefruit trees were separated into three groups. […] Spray treatment formulations were applied using a commercial air-blast sprayer (250 gallons/acre). Size 40 fruit were harvested in quadruplicate, washed, and waxed on Day 0. The washed and waxed fruit as then stored at ambient conditions (approximately 70-75° F.) for 40 days. Size 40 fruit harvested on Day 1 were left unwashed and unwaxed prior to storage (unwashed and unwaxed samples). To test the ability of the aqueous formulation of the present invention to protect harvested fruit from water loss, stored fruit were observed 8 and 20 days after harvest.

[6] = tested on: Green Mold; assay: Post-harvest disease protection in fruit: Green Mold (Example 5); type: in vivo, grapefruit; details: after 40 days in storage
Description: as §1

[7] = average over cartons of the group

O=P([O-])(O)O.[K+] [MKP, mono potassium phosphate]
Average Weight Difference (%) [1, 7]: 12.5%
Average Δ Weight (lbs) [1, 7]: 5 lbs
Weight Difference (%) ([1]; fruit size 27, Day 0 to Day 54): 11%
Δ Weight (lbs) ([1]; fruit size 27, Day 0 to Day 54): 4.4 lbs and 4.6 lbs
Weight Difference (%) ([1]; fruit size 32, Day 0 to Day 54): 14% and 13%
Δ Weight (lbs) ([1]; fruit size 32, Day 0 to Day 54): 5.6 lbs and 5.2 lbs
Disease (puncture) ([1]; fruit size 32, fruit per carton at inspection): 1 puncture
Weight Difference (%) ([1]; fruit size 36, Day 0 to Day 54): 14%
Δ Weight (lbs) ([1]; fruit size 36, Day 0 to Day 54): 5.6 lbs and 5.8 lbs
Disease ([1]; fruit size 36, fruit per carton at inspection): 4 rot and 3 rot
Weight Difference (%) ([1]; fruit size 40, Day 0 to Day 54): 12% and 11%
Δ Weight (lbs) ([1]; fruit size 40, Day 0 to Day 54): 4.6 lbs and 4.2 lbs
Disease ([1]; fruit size 40, fruit per carton at inspection): 1 rot
shine and firmness compared with control ([1]; packed fruit at inspection): negligible
Fruit Condition ([1]; remarks printed beside carton lines, probably for the whole group, footnote: ⅔ fruit per carton were very firm): no shine; also recorded: Like control; also recorded: very soft

O=P([O-])([O-])O.[K+].[K+] [DKP, di-potassium phosphate]
Disease Diplodia (%) [2]: 6.5%
Disease Anthracnose (%) [3]: 5.9%
SERB (stem-end rind breakdown) (%) [4]: 7.15% and 7.15 ab %
Total Decay (%) [4]: 16.31%
Healthy (%) ([4]; washed and waxed fruit): 77.15%
Wt. Loss (%) Day 8 ([5]; not washed and waxed): 1.43 a %
Wt. Loss (%) Day 20 ([5]; not washed and waxed): 4.08 a %
Wt. Loss (%) Day 8 ([5]; washed and waxed): 1.11 c %
Wt. Loss (%) Day 20 ([5]; washed and waxed): 3.89 a %
Disease Green Mold (%) [6]: 3.96%
